pEC50, pIC50, pKi: −log10 of the molar value.
What was measured:
[1] = AUC (0 to last) in Sprague-Dawley rat at 10 mg/kg, iv by LC-MS/MS analysis; format: ADME, organism-based; design: time 0 - last, dose 10 mg/kg, route iv; conditions: in vivo
[2] = Half life in Sprague-Dawley rat at 10 mg/kg, iv by LC-MS/MS analysis; format: ADME, organism-based; conditions: in vivo
[3] = target: Serine/threonine-protein kinase Chk1 (Homo sapiens, UniProt O14757); assay: Inhibition of N-terminal GST-tagged full-length recombinant human CHK1 expressed in baculovirus infected Sf9 insect cells using FAM-P10 peptide as substrate preincubated for 10 mins followed by substrate addition measured after 60 mins by ADP-Glo assay
Serine/threonine-protein kinase Chk1, sequence (O14757 whole entry): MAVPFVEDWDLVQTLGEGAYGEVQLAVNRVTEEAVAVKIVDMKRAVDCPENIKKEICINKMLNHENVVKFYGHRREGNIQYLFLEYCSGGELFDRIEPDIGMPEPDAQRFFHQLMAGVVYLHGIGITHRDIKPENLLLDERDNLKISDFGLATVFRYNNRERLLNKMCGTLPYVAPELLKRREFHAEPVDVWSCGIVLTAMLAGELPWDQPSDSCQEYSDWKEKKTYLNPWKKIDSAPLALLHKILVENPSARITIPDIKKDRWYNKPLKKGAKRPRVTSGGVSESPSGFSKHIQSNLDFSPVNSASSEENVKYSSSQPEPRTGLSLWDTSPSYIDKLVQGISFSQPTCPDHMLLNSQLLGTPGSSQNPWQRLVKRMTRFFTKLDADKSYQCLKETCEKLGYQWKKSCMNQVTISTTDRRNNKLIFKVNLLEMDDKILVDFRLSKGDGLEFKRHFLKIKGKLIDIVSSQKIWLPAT

[4] = AUC (0 to last) in overnight fasted rat at 5 mg/kg, po via gavage measured for 0.25 to 24 hrs by LC/MS/MS analysis; format: ADME, organism-based; design: time upper 24 hrs, dose 5 mg/kg, time lower 0.25 hrs, route po; conditions: in vivo
[5] = Cmax in overnight fasted rat at 5 mg/kg, po via gavage measured for 0.25 to 24 hrs by LC/MS/MS analysis; format: ADME, organism-based; design: dose 5 mg/kg, time upper 24 hrs, time lower 0.25 hrs, route po; conditions: in vivo
[6] = target: T1, Protein cereblon/Wee1-like protein kinase (Homo sapiens, UniProt P30291+Q96SW2); assay: PROTAC activity at CRBN/WEE1 in human […] assessed as induction of WEE1 degradation treated for 5 hrs by Western blot analysis; format: cell-based
T1 sequence (P30291 whole entry): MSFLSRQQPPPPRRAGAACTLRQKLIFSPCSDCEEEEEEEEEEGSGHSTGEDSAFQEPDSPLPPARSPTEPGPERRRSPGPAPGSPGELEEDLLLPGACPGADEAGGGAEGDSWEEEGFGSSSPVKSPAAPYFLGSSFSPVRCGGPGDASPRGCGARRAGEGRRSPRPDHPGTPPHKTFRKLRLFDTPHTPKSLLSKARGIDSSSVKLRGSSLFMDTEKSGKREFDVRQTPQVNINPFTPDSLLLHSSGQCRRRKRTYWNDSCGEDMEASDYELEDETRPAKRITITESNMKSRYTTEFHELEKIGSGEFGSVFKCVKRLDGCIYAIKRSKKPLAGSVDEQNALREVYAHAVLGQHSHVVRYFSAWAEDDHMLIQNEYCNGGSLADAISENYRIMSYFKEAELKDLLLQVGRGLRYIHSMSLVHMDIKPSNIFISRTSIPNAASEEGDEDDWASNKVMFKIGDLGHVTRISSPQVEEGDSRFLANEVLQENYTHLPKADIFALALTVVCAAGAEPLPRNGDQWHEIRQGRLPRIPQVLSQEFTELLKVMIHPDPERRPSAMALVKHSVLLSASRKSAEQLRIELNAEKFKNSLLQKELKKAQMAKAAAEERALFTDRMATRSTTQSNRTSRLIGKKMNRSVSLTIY
T1 sequence (Q96SW2 whole entry): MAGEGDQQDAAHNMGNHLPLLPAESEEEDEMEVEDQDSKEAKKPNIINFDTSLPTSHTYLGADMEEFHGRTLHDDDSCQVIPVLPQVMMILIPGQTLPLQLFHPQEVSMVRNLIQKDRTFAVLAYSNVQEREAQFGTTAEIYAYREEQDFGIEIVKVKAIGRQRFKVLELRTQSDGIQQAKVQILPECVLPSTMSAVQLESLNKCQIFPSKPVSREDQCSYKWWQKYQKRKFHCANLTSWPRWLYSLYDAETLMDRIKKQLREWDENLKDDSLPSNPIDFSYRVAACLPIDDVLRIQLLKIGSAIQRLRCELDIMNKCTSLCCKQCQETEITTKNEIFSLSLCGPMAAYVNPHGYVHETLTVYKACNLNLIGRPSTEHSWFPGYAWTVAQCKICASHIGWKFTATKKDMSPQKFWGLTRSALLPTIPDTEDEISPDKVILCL

[7] = target: T1, Protein cereblon/Wee1-like protein kinase; assay: PROTAC activity at CRBN/recombinant WEE1 (unknown origin) assessed as induction of WEE1 degradation by FRET based Lantha Screen assay; format: protein assay
Wee1-like protein kinase [8] = target: T2, Wee1-like protein kinase (Homo sapiens, UniProt P30291); assay: Displacement of tracer 178 from N-terminal GST-fused human WEE1 (215 to 646 residues) expressed in baculovirus expression system preincubated for 5 mins followed by tracer addition measured after 60 mins by Lantha Screen EU assay
T2 sequence (P30291 whole entry, the tested form may be a part): as the sequence (P30291 whole entry) above

[9] = Half life in BALB/c nude mouse at 1 mg/kg, iv measured for 0.08 to 24 hrs by LC-MS/MS analysis; format: ADME, organism-based; conditions: in vivo, time 0.08-24 hrs
[10] = AUC (0 to last) in BALB/c nude mouse at 1 mg/kg, iv measured for 0.08 to 24 hrs by LC-MS/MS analysis; format: ADME, organism-based; design: time 0.08-24 hrs, dose 1 mg/kg, route iv; conditions: in vivo
[11] = Oral bioavailability in BALB/c nude mouse at 1 mg/kg, iv measured for 0.08 to 24 hrs by LC-MS/MS analysis; format: ADME, organism-based; conditions: in vivo, time 0.08-24 hrs
LoVo [12] = assay: Antitumor activity against human LoVo cells xenografted in BALB/c nude mouse assessed as tumor growth inhibition at 40 mg/kg,iv bid by vernier caliper method relative to control; format: functional; conditions: read-out: TGI
Wee1-like protein kinase [13] = target: T2, Wee1-like protein kinase; assay: Inhibition of WEE1 (unknown origin) using LSNLYHQGKFLQTFCGSPLYRRR polypeptide as substrate incubated for 40 mins in presence of [gamma-33P]-ATP by scintillation counting method
[14] = Half life in mouse at 0.4 mg/kg, iv; format: ADME, organism-based; conditions: in vivo
[15] = AUC (0 to last) in mouse at 0.4 mg/kg, iv; format: ADME, organism-based; design: time 0 - last, dose 0.4 mg/kg, route iv; conditions: in vivo
[16] = target: DNA-dependent protein kinase catalytic subunit (Homo sapiens, UniProt P78527); assay: Inhibition of DNA-PK (unknown origin)
[17] = Oral bioavailability in ICR mouse at 10 mg/kg measured for 5 to 1440 mins; format: ADME, organism-based; conditions: in vivo, time 5-1440 min
[18] = AUC (0 to last) in ICR mouse at 10 mg/kg, po measured for 5 to 1440 mins; format: ADME, organism-based; design: time 5-1440 min, dose 10 mg/kg, route po; conditions: in vivo
[19] = Half life in ICR mouse at 3 mg/kg, iv measured for 2 to 1440 mins; format: ADME, organism-based; conditions: in vivo, time 2-1440 min
[20] = AUC (0 to last) in ICR mouse at 3 mg/kg, iv measured for 2 to 1440 mins; format: ADME, organism-based; design: time 2-1440 min, dose 3 mg/kg, route iv; conditions: in vivo
[21] = Tmax in ICR mouse at 3 mg/kg, iv measured for 2 to 1440 mins; format: ADME, organism-based; conditions: in vivo, time 2-1440 min
[22] = Half life in ICR mouse at 10 mg/kg, po measured for 5 to 1440 mins; format: ADME, organism-based; conditions: in vivo, time 5-1440 min
[23] = Cmax in ICR mouse at 10 mg/kg, po measured for 5 to 1440 mins; format: ADME, organism-based; design: time upper 1440 min, dose 10 mg/kg, time lower 5 min, route po; conditions: in vivo
Wee1-like protein kinase [24] = target: T2, Wee1-like protein kinase; assay: Inhibition of N-terminal GST-tagged wild-type WEE1 (215 to 646 residues) (unknown origin) expressed in Sf21 insect cells incubated for 60 mins in presence of ATP by ELISA
[25] = Tmax in ICR mouse at 10 mg/kg, po measured for 5 to 1440 mins; format: ADME, organism-based; conditions: in vivo, time 5-1440 min
[26] = Cmax in ICR mouse at 3 mg/kg, iv measured for 2 to 1440 mins; format: ADME, organism-based; design: time upper 1440 min, dose 3 mg/kg, time lower 2 min, route iv; conditions: in vivo
[27] = Half life in BALB/c mouse at 2 mg/kg, po by LC-MS/MS analysis; format: ADME, organism-based; conditions: in vivo
[28] = Cmax in BALB/c mouse at 2 mg/kg, po by LC-MS/MS analysis; format: ADME, organism-based; design: dose 2 mg/kg, route po; conditions: in vivo
[29] = Half life in BALB/c mouse at 0.4 mg/kg, iv by LC-MS/MS analysis; format: ADME, organism-based; conditions: in vivo
[30] = Oral bioavailability in BALB/c mouse at 2 mg/kg by LC-MS/MS analysis; format: ADME, organism-based; conditions: in vivo
[31] = Tmax in BALB/c mouse at 2 mg/kg, po by LC-MS/MS analysis; format: ADME, organism-based; conditions: in vivo
[32] = AUC (0 to last) in BALB/c mouse at 2 mg/kg, po by LC-MS/MS analysis; format: ADME, organism-based; design: time 0 - last, dose 2 mg/kg, route po; conditions: in vivo
[33] = AUC (0 to last) in BALB/c mouse at 0.4 mg/kg, iv by LC-MS/MS analysis; format: ADME, organism-based; design: time 0 - last, dose 0.4 mg/kg, route iv; conditions: in vivo
NCI-H1703 = assay: Antitumor activity against human NCI-H1703 cells xenografted in BALB/c mouse assessed as tumor growth inhibition at 90 mg/kg, bid measured on day 21 by vernier caliper method relative to control; format: functional; conditions: NCI-H1703, 504 h, read-out: TGI
[34] = target: T3, Serine/threonine-protein kinase ATR (Homo sapiens, UniProt Q13535); assay: Inhibition of ATR (unknown origin)-driven CHK1 phosphorylation
T3 sequence (Q13535 whole entry): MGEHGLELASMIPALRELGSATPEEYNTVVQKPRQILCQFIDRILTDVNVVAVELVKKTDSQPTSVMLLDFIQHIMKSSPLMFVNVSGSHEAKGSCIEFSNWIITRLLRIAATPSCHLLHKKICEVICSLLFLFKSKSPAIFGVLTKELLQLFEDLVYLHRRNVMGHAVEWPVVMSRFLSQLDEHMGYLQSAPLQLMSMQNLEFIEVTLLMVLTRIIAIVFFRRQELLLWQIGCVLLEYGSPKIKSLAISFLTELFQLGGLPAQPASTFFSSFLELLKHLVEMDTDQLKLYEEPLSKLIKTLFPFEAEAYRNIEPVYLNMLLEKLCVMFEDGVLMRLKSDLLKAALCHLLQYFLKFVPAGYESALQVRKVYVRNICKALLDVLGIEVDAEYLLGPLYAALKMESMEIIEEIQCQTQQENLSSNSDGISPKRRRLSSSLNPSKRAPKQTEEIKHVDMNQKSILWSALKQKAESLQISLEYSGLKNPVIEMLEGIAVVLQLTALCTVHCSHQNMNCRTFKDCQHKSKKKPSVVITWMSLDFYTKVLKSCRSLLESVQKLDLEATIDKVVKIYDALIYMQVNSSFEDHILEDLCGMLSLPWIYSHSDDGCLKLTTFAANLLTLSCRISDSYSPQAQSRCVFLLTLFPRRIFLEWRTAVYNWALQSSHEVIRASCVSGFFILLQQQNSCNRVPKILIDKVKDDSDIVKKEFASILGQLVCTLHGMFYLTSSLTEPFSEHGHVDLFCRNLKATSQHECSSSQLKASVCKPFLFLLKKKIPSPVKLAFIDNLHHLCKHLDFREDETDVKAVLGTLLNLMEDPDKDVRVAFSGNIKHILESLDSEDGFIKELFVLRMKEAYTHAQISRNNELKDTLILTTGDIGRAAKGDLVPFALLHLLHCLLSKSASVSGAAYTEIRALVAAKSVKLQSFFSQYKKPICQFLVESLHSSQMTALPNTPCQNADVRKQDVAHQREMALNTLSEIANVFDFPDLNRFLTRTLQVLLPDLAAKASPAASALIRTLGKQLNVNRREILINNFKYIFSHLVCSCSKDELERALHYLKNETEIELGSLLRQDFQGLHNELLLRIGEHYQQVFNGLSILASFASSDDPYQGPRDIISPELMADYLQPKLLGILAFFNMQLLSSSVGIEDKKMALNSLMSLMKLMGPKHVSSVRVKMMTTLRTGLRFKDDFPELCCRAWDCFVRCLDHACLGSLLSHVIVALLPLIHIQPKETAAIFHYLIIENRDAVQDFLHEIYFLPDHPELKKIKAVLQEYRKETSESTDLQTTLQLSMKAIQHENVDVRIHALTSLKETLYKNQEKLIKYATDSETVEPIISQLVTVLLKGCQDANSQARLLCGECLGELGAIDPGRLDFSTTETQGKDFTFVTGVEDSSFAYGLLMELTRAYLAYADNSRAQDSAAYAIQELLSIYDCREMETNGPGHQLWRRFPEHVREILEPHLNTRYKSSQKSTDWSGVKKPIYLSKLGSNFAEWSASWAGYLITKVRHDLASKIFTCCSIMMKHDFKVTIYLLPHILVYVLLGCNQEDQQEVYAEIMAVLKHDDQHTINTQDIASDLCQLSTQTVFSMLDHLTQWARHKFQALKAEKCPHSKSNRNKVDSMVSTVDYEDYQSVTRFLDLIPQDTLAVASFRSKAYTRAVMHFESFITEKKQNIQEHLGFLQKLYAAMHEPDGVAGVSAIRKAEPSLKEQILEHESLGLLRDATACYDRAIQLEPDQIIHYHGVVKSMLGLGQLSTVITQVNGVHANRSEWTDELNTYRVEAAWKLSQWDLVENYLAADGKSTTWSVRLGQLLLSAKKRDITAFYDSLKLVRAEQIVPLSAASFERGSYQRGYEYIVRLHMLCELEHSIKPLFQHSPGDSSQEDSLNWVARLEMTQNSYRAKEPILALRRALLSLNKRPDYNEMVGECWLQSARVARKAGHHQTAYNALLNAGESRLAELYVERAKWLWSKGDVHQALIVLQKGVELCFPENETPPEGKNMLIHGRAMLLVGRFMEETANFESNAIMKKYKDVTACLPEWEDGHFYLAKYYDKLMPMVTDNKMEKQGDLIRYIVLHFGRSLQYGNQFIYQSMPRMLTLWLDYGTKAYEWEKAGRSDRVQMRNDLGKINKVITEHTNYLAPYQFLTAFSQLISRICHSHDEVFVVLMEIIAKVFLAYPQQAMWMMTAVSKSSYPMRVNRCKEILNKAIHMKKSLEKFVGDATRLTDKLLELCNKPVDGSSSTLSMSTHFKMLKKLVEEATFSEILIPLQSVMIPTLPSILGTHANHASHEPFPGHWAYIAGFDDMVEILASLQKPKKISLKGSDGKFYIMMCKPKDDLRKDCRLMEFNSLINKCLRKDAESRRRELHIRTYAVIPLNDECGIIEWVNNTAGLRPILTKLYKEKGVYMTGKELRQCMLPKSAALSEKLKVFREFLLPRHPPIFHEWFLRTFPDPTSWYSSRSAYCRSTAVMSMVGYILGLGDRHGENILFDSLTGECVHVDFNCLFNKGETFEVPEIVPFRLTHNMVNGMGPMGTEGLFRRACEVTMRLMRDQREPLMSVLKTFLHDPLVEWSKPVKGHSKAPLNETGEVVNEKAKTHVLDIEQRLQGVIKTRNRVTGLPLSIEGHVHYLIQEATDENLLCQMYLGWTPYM

[35] = target: T3, Serine/threonine-protein kinase ATR; assay: Binding affinity to ATR (unknown origin) assessed as inhibition constant
HT-29 = assay: Antitumor activity against human HT-29 cells xenografted in BALB/c mouse assessed as tumor growth inhibition relative to control; format: functional
[36] = Cmax in overnight fasted Sprague-Dawley rat at 2 mg/kg, po via gavage measured for 0.25 to 24 hrs by LC/MS/MS analysis; format: ADME, organism-based; design: dose 2 mg/kg, time upper 24 hrs, time lower 0.25 hrs, route po; conditions: in vivo
ATR/ATRIP = ATR/ATRIP (Homo sapiens, UniProt Q13535); assay: Inhibition of human FLAG-tagged ATR/c-Myc-tagged ATRIP expressed in mammalian expression system using p53 as substrate incubated for 2 hrs by fluorescence based assay
ATR/ATRIP, sequence (Q13535 whole entry): as above
ATR/ATRIP, sequence (Q8WXE1 whole entry, further chain): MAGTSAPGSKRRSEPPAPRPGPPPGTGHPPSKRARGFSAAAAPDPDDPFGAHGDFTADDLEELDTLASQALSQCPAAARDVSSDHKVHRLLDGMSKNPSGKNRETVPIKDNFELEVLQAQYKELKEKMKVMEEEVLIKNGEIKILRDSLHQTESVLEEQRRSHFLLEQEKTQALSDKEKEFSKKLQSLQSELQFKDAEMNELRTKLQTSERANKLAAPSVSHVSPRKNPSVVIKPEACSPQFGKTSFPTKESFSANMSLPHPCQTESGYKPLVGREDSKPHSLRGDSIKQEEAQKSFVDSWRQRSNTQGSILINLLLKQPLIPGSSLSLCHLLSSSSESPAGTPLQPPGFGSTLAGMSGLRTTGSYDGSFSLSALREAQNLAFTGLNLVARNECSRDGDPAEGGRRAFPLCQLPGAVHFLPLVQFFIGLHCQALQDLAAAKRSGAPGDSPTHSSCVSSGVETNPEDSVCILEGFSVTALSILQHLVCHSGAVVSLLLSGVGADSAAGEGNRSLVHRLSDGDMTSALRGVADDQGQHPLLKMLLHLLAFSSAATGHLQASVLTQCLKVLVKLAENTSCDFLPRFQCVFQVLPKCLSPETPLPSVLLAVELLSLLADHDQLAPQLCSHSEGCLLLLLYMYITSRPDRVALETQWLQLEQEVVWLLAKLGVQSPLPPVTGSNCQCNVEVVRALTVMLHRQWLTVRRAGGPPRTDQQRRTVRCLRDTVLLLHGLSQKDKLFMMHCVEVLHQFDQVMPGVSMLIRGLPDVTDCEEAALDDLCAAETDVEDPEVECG

[37] = AUC in overnight fasted Sprague-Dawley rat at 2 mg/kg, po via gavage measured for 0.25 to 24 hrs by LC/MS/MS analysis; format: ADME, organism-based; design: time 0.25-24 hrs, dose 2 mg/kg, route po; conditions: in vivo
LoVo [38] = assay: Inhibition of cell growth in human LoVo cells assessed as measuring ATP content incubated for 3 days by Cell Titer Glo assay; format: functional, cell-based; conditions: 72 h
[39] = Half life in overnight fasted Sprague-Dawley rat at 2 mg/kg, po via gavage measured for 0.25 to 24 hrs by LC/MS/MS analysis; format: ADME, organism-based; conditions: in vivo, time 0.25-24 hrs

CCOC(=O)NCCCOc1cc(F)cc(OC)c1-c1cc(Nc2cnc(C#N)cn2)n[nH]1
AUC(0-t) [1]: 2990 ng·h/mL | half-life [2]: 318 min | pIC50 [3]: > 7.30

CN1CCN(C2CCN(c3ccc(Nc4ncc5c(F)c(C6CC6)n(-c6cccc(C(C)(C)O)n6)c5n4)cc3F)CC2)CC1
AUC(0-t) [4]: 4580 ng·h/mL | Cmax [5]: 117 nM

C=CCn1c(=O)c2cnc(Nc3ccc(N4CCN(CCCNc5cccc6c5C(=O)N(C5CCC(=O)NC5=O)C6=O)CC4)cc3)nc2n1-c1cccc(C(C)(C)O)n1 (configuration not stated)
pEC50 [6]: 7.00 | pIC50 [7]: 8.45

CN1CCC2(CC1)CCN(c1ccc(Nc3ncc4cc(C5CC5)n(-c5cccc(C(C)(C)O)n5)c4n3)cc1)CC2
AUC(0-t) [4]: 4070 ng·h/mL | pIC50 (Wee1-like protein kinase [8]): 8.99 | Cmax [5]: 163 nM

CN1CCN(c2ccc(Nc3ncc4c(=O)n5n(c4n3)-c3cccc(n3)[C@@](C)(O)CCC/C=C\C5)cc2)CC1
half-life [9]: 101 min | AUC(0-t) [10]: 6.04 µM·h | bioavailability [11]: 62.4% | inhibition in vivo at 40 mg/kg (LoVo [12]): 84.7% | pIC50 (Wee1-like protein kinase [13]): 7.54

COc1ccc(C2(c3cc(-c4ncnc5cc(N6CCOCC6)ccc45)c(F)cc3Cl)CC2)nn1
half-life [14]: 35.4 min | AUC(0-t) [15]: 2260 ng·h/mL | pIC50 [16]: 7.54

CN1CC2CN(c3ccc(Nc4ncc5c(=O)n6n(c5n4)-c4cccc(n4)C(C)(O)CCC/C=C\C6)cc3)CC2C1 (configuration not stated)
pIC50 (Wee1-like protein kinase [13]): 7.24

C=CCn1c(=O)c2cnc(Nc3ccc(N4C[C@H]5CN(C)C[C@H]5C4)cc3)nc2n1-c1ccc(C(C)(C)O)cn1
bioavailability [17]: 64.3% | AUC(0-t) [18]: 409 ng·h/mL | half-life [19]: 55.2 min | AUC(0-t) [20]: 191 ng·h/mL | Tmax [21]: 1.8 min | half-life [22]: 79.2 min | Cmax [23]: 121 nM | pIC50 (Wee1-like protein kinase [24]): 8.74 | Tmax [25]: 79.8 min | Cmax [26]: 241 nM

C=CCn1c(=O)c2cnc(Nc3ccc(N4C[C@H]5CN(CC6CC6)C[C@H]5C4)cc3)nc2n1-c1ccc(C(C)(C)O)cn1
bioavailability [17]: 63.7% | AUC(0-t) [18]: 326 ng·h/mL | half-life [19]: 43.8 min | AUC(0-t) [20]: 153 ng·h/mL | Tmax [21]: 1.8 min | half-life [22]: 57 min | Cmax [23]: 266 nM | pIC50 (Wee1-like protein kinase [24]): 8.51 | Tmax [25]: 55.2 min | Cmax [26]: 430 nM

Cc1cc2ncnn2cc1Nc1ncc2c(n1)n(N1CC3CCC(C1)O3)c(=O)n2C
half-life [27]: 231 min | Cmax [28]: 2170 nM | half-life [29]: 76.8 min | bioavailability [30]: 44.5% | Tmax [31]: 15 min | AUC(0-t) [32]: 3.49 µM·h | AUC(0-t) [33]: 1.66 µM·h | inhibition in vivo at 90 mg/kg (NCI-H1703): 79.4%

Nc1nn2cc(F)cnc2c1C(=O)Nc1cncc(F)c1N1CCC(C(=O)N2CCN(C3COC3)CC2)CC1 [M4344]
pIC50 [34]: 8.10 | pKi [35]: > 9.82

COc1cc(F)cc(OCCCN)c1-c1cc(Nc2cnc(C#N)cn2)n[nH]1
TGI (HT-29): 51% | AUC(0-t) [1]: 4640 ng·h/mL | pIC50 [3]: > 9.00

C[C@@H]1COCCN1c1nc(-c2ccnn2C)c2c(n1)c(-c1ccn[nH]1)nn2C
Cmax [36]: 674 ng/mL | pIC50 (ATR/ATRIP): 7.82 | AUC [37]: 2710 ng·h/mL | pIC50 (LoVo [38]): 6.91 | half-life [39]: 134 min
